In US8030443B2, “Squamous cell carcinoma antigen-derived peptide binding to HLA-A24 molecule” (Kurume University, priority 2005, dated 2011):

System: PBMCs from HLA-A24^+ cancer patients and HDs
Test: Induction of peptide-specific CTLs from PBMCs, IFN-γ ELISA against peptide-pulsed C1R-A24 cells
Assay type: cell-based, human
Conditions: for Total: healthy donors with induction of peptide-specific CTLs / donors tested: 8 HLA-A24^+ healthy donors; for Total: healthy donors with induction of peptide-specific CTLs / donors tested / Total: cancer patients with induction of peptide-specific CTLs / patients tested: positive when more than 50 pg/ml IFN-γ with p<0.05; for Total: cancer patients with induction of peptide-specific CTLs / patients tested: 20 HLA-A24^+ cancer patients; for IFN-γ Production: HIV peptide background subtracted, only significant values shown, — otherwise
Procedure: PBMCs from HLA-A24^+ cancer patients and HDs were used for the CTL induction assay. For the induction of peptide-specific CTLs, PBMCs (1.5×10^5 cells/well) were incubated with 10 μg/ml of each peptide in four different wells of a 96-well microculture plate (Nunc) in 200 μl of culture medium containing interleukin (IL)-2, as reported previously (Non-Patent Literature 18). Every 3 or 4 days, half the culture medium was removed and replaced with new medium containing the corresponding peptide (20 μg/ml) and 100 U/ml IL-2. On the 14th day, the cells from each well were independently harvested, washed, separated into four wells, and tested for their ability to produce interferon (IFN)-γ in response to C1R-A24 cells pulsed with a corresponding peptide or a negative control HIV peptide in the duplicate assays. C1R-A24 is an HLA-A2402-expressing subline of C1R lymphoma (Dr. M. Takiguchi, Kumamoto University, Japan). After an 18-h incubation of C1RA-24, the supernatant was collected, and the level of IFN-γ was determined by ELISA.
Whether or not the SCCA107, SCCA112, SCCA215, and SCCA286 peptides had the potential to induce peptide-specific CTLs from the PBMCs of 20 HLA-A24^+ cancer patients and 8 HLA-A24^+ healthy donors was investigated. The group of twenty cancer patients consisted of 4 esophageal SCC patients, 4 cervical SCC patients, 4 lung cancer patients (2 adenocarcinomas, one small cell carcinoma, and one squamous cell carcinoma), 4 gastric adenocarcinoma patients, and 4 colon adenocarcinoma patients. The assay was carried out in quadruplicate. The cultured cells in one well were separated into 4 wells, and two wells were used for the SCCA peptide-pulsed C1R-A24 cells, and the other two were used for the HIV peptide-pulsed C1R-A24 cells.

Row | Sequence | Total: healthy donors with induction of peptide-specific CTLs / donors tested | Total: cancer patients with induction of peptide-specific CTLs / patients tested | Total: cancer patients with induction of peptide-specific CTLs / patients tested (listed as SCCA107) | IFN-γ Production (PBMCs of HLA-A24^+ healthy donor 7) [pg/mL] | IFN-γ Production (PBMCs of HLA-A24^+ patient 2, Esophagus) [pg/mL] | IFN-γ Production (PBMCs of HLA-A24^+ patient 6, Cervix of uterus) [pg/mL] | IFN-γ Production (PBMCs of HLA-A24^+ patient 13, Stomach) [pg/mL] | Total: cancer patients with induction of peptide-specific CTLs / patients tested (listed as SCCA286) | IFN-γ Production (PBMCs of HLA-A24^+ patient 4, Esophagus) [pg/mL] | IFN-γ Production (PBMCs of HLA-A24^+ patient 7, Cervix of uterus) [pg/mL]
1 | LFGEKTYLFL (SCCA 107-116 peptide) [SCCA-derived peptide, position 107-116] | 1/8 | 3/20 | 3 of 20 | 259 | 84 | 105 | 500 | – | – | –
2 | RFKVEESYDL (SCCA 286-295 peptide) [SCCA-derived peptide, position 286-295] | 0/8 | 3/20 | – | – | – | – | – | 3 of 20 | 97 | 169
